Tests used:
COX-2 = molecular target: T1, COX-2 (Homo sapiens, UniProt P35354); experiment: COX-2 activity in human whole blood (PGE2 by EIA after LPS induction); assay type: cell-based; conditions: for IC50: LPS 10 μg/ml, 24 h at 37° C., PGE2 levels
T1 construct: incubated in the presence of LPS (10 μg/ml) for 24 h at 37° C. in order to induce the COX-2 expression; from tissue; host or cells: fresh heparinized human whole blood from healthy volunteers, LPS-stimulated
T1 sequence (P35354 18-604): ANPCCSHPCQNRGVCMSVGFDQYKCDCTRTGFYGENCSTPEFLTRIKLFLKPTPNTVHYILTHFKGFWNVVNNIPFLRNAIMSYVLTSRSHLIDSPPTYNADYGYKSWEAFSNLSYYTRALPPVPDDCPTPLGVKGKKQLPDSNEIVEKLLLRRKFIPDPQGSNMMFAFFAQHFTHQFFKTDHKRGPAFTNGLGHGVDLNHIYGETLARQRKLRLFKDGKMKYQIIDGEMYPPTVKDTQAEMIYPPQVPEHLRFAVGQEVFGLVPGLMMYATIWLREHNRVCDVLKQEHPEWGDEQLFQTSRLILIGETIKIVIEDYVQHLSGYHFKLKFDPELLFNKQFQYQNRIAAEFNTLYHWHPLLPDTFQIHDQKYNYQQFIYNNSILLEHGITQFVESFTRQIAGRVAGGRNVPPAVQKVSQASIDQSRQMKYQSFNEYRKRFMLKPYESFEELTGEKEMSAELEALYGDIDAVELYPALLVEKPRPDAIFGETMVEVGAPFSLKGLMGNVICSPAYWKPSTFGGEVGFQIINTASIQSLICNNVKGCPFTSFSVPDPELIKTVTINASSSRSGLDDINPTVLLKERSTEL
Description: (§1) COX-1 and COX-2 Activities in Human Whole Blood
For the COX-2 activity determination, 500 μl aliquots of blood were incubated in the presence of LPS (10 μg/ml) for 24 h at 37° C. in order to induce the COX-2 expression (Patriagnani et al., J. Pharm. Exper. Ther. 271; 1705-1712 (1994)). Plasma was separated by centrifugation (10 min at 13000 rpm) and kept at −30° C. until PGE2 levels were measured using an enzyme immunoassay kit (EIA). The effects of inhibitors were studied by incubating each compound (5 μl aliquots) at five to six different concentrations with triplicate determinations in the presence of LPS for 24 hours. IC50 values were obtained by non-linear regression using InPlot, GraphPad software on an IBM computer.

COX-1 = molecular target: T2, COX-1 (Homo sapiens, UniProt P23219); experiment: COX-1 activity in human whole blood (TXB2 by EIA after calcium ionophore A23187); assay type: cell-based; conditions: 24 h at 37° C., A23187 25 μM, TXB2 levels
T2 construct: Fresh blood from healthy volunteers; from tissue; host or cells: fresh heparinized human whole blood from healthy volunteers
T2 sequence (P23219 24-599): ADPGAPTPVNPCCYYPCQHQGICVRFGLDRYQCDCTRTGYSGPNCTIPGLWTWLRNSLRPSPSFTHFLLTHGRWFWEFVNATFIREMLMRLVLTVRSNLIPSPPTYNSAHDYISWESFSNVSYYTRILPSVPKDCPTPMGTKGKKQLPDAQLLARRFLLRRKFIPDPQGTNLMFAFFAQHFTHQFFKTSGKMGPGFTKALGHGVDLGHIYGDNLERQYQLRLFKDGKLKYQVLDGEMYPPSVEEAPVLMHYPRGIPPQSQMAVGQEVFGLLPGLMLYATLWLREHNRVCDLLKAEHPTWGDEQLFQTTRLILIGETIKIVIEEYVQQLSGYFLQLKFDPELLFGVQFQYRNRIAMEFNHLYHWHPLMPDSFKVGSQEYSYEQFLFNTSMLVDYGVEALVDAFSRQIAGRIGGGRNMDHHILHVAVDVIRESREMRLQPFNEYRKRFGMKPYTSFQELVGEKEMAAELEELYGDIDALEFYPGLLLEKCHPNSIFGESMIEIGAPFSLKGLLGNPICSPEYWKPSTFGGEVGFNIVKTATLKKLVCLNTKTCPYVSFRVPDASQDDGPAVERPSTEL
Description: as §1
Fresh blood from healthy volunteers who had not taken any non-steroidal anti-inflammatory drugs for at least 7 days prior to blood extraction was collected in heparinized tubes (20 units of heparin per ml). For the COX-1 activity determination, 500 μl aliquots of blood were incubated with either 5 μl vehicle (dimethylsulphoxide) or 5 μl of a test compound for 24 h at 37° C. Calcium ionophore A23187 (25 μM) was added 20 min before stopping the incubation. Plasma was separated by centrifugation (10 min at 13000 rpm) and kept at −30° C. until TXB2 levels were measured using an enzyme immunoassay kit (EIA).
The effect of the compounds was evaluated by incubating each compound at five to six different concentrations with triplicate determinations. IC50 values were obtained by non-linear regression using InPlot, GraphPad software on an IBM computer.

IC50 (COX-2) [µM]	Ratio COX-1/COX-2 (COX-2; ratio of COX-1/COX-2 IC50 values)	IC50 (COX-1) [µM]	SMILES
3.7	12.3	45.5	Cc1ccc(-c2ncc(Cl)cc2-c2ccc([S+](C)[O-])cc2)cn1 (racemic) [5-chloro-6′methyl-3-[4-(methylsulfinyl)phenyl]-2,3′-bipyridine (racemate), 5-Chloro-6′-methyl-3-[4-(methylsulfinyl)phenyl]-2,3′-bipyridine]
–	–	20.2	Cc1ccc(-c2ncc(Cl)cc2-c2ccc([S+](C)[O-])cc2)cn1 (single isomer, unassigned) [5-chloro-6′methyl-3-[4-(methylsulfinyl)phenyl]-2,3′-bipyridine (Enantiomer 1a), 5-Chloro-6′-methyl-3-[4-(methylsulfinyl)phenyl]-2,3′-bipyridine (Enantiomer 1a)]
3.5	–	77.8	Cc1ccc(-c2ncc(Cl)cc2-c2ccc([S+](C)[O-])cc2)cn1 (single isomer, unassigned) [5-chloro-6′methyl-3-[4-(methylsulfinyl)phenyl]-2,3′-bipyridine (Enantiomer 1b), 5-Chloro-6′-methyl-3-[4-(methylsulfinyl)phenyl]-2,3′-bipyridine (Enantiomer 1b)]

— patent US20060229338A1, “2,3'-bipyridines derivatives as selective cox-2 inhibitors” (priority 2003, published 2006)
